The record followed here is patent publication US20070092939A1, “HUMAN IMMUNODEFICIENCY VIRUS ENTRY INHIBITOR ASSAY” (priority 2003, published 2007).

The experiment deals with co-cultivation-induced fusion between HL2/3 and HeLa-CD4-LTR-β-gal cells. Description: Cell fusion assay by co-cultivation of HL2/3 and HeLa-CD4-LTR-β-gal cells, β-galactosidase chemiluminescence readout. The experiment is classed as cell-based. Conditions: for Response Chemiluminescence / Response Inhibition (%): Table 1; for Chemiluminescence / Inhibition: Table 2 specificity test. As for the experimental part: Depending on the culture vessel (T75 or T175), 0.5−2.0×10^6 HL2/3 or HeLa-CD4-LTR-β-gal cells were seeded into their respective Propagation Medium (for HL2/3, DMEM containing 10% FBS and 0.5 mg/ml G418; for HeLa-CD4-LTR-β-gal, DMEM containing 10% FBS, 0.2 mg/ml G418, and 0.1 mg/ml hygromycin B). Culture at 37° C. with 95% air/5% CO2 until the cultures reach 60% confluency, but can not exceed 95% confluency.
Remove medium by aspiration with 2-ml of glass pipette. Add 5 ml (for T75 flask) or 10 ml (for T175 flask) of the cell dissociation buffer (CDB). Incubate at room temperature for at least 20 minutes. While waiting, prepare potential entry inhibitor (e.g. TNX-355) with cold Assay Medium (DMEM supplemented with 10% FBS) for treatment. Harvest cells in a 15-ml (for T75) or 50-ml (for T175) conical centrifuge tube by repeated pipetting. Determine cell density and viability in 100 μl of samples with Trypan Blue Exclusion method. Centrifuge at 1000 rpm (or 201×g) for 5 minutes. Discard supernatant and resuspend cells in pre-warmed Assay Medium at a cell density of 1×10^6 cells/ml (for HeLa-CD4-LTR-β-gal cells) or 2×10^6 cells/ml (for HL2/3 cells).
Further dilute HeLa-CD4-LTR-β-gal cells to 0.25×10^6 cells/ml with pre-warmed Assay Medium, and pipette 90 μl to each well of a 96-well clear-bottom white-wall plate using a 12-channel pipet. Add 20 μl of drug or medium to each well as needed. Further dilute HL2/3 cells to 0.5×10^6 cells/ml with pre-warmed Assay Medium, and pipette 90 μl to each well of a 96-well clear-bottom white-wall plate using a 12-channel pipet. Total cells in each well is 6.75×10^4 cells at a ratio of 2:1 (HL2/3 to HeLa-CD4-LTR-β-gal cells). Culture cells at 37° C. with 95% air/5% CO2 for about 24 hours.
Remove the medium row by row, immediately followed by addition of 50 μl/well of Lysis Solution (Roche Lysis Buffer containing protease inhibitors). Incubate for 60 minutes at 15-25° C. with mild shaking (200-300 rpm). While waiting, dilute 1 volume of concentrated substrate with 99 volumes of Reaction Buffer to make working substrate solution.
Add 100 μl of the substrate reagent to each well row by row using 12-channel pipette. Incubate for 90 minutes at room temperature with mild shaking (200-300 rpm). While waiting, bring proper volume of Accelerator II solution to room temperature. Add 50 μl of the Accelerator II to each well row by row using 12-channel pipette. Measure light emission with a microplate luminometer. The chemiluminescence readout is reported as light units per second.
The inhibition of HIV entry inhibitors, including TNX-355, T20, SIM.4, and sCD4, was tested on the co-cultivation-induced fusion between the two cell lines (HL2/3 to HeLa-CD4-LTR-β-gal cells). TNX-355 is a humanized anti-CD4 domain 2 antibody, T20 a synthetic oligopeptide mimicking the […] HR-2 region, SIM.4 a monoclonal anti-CD4 domain 1 antibody, and sCD4 is a soluble extracellular portion of CD4 molecule. Multiple levels of each reagent were tested following the procedures described in the Materials and Methods.
Assay specificity was addressed by comparing the inhibitory activity of TNX-355 to those of two structurally similar but functionally irrelevant antibodies. These antibodies are TNX-224 (a humanized antibody IgG4 which differs in complementary determining regions (CDR) but share a majority of sequence homology to TNX-355) and TNX-901 (a humanized antibody IgG1).

In general, Inhibition refers to the percentage by which the read-out fell short of the control. Low values mean little suppression, high ones strong suppression. With “TNX-355: humanized anti-CD4 domain 2 antibody, IgG4”, the “Response Chemiluminescence” value came out at 39185 ± 1260.79 light units per second (reagent 0.1 ng/ml); 34525 ± 2281.39 light units per second (reagent 10 ng/ml); 29152 ± 2492.87 light units per second (reagent 25 ng/ml); 23993 ± 650.74 light units per second (reagent 50 ng/ml); 18724 ± 989.73 light units per second (reagent 100 ng/ml); 12312 ± 1516.60 light units per second (reagent 200 ng/ml). Further, the “Response Chemiluminescence” value (reagent 1000 ng/ml) is recorded as 6896 ± 383.09 light units per second and the “Response Chemiluminescence” value (reagent 10000 ng/ml, about 24 hours co-cultivation) is 4978 ± 669.32 light units per second. Besides, the “Response Inhibition (%)” value (reagent 0.1 ng/ml) was 23.2%; the “Response Inhibition (%)” value (reagent 10 ng/ml) came out at 33.7%; the “Response Inhibition (%)” value (reagent 25 ng/ml) was 45.8%; the “Response Inhibition (%)” value (reagent 50 ng/ml) is on record as 57.3%; the “Response Inhibition (%)” value (reagent 100 ng/ml) came to 69.2%; the “Response Inhibition (%)” value (reagent 200 ng/ml) came out at 83.5%. Moreover, the “Response Inhibition (%)” value reads like this: (reagent 1000 ng/ml) 95.7%; (reagent 10000 ng/ml) 100.0%. For the same molecule, the Chemiluminescence runs as follows: (antibody amount 0.025 μg/ml) 34121 ± 714.43 light units per second; (antibody amount 1.0 μg/ml) 5135 ± 432.41 light units per second. For the same molecule, the Inhibition runs as follows: (antibody amount 0.025 μg/ml) 20%; (antibody amount 1.0 μg/ml) 88%.

B1: TNX-901: humanized antibody IgG1; functionally irrelevant control (antibody, chains of the INN, looked up, V domains shown)
VH: QVQLVQSGAEVKKPGASVKVSCKASGYTFSMYWLEWVRQAPGHGLEWVGEISPGTFTTNYNEKFKARATFTADTSTNTAYMELSSLRSEDTAVYYCARFSHFSGSNYDYFDYWGQGTLVTVSS
VL: DILLTQSPGTLSLSPGERATLSCRASQSIGTNIHWYQQKPGQAPRLLIKYASESISGIPSRFSGSGSGTDFTLTISRLEPEDFAMYYCQQSDSWPTTFGQGTKVEIK
Turning to B1, where the note is “antibody amount 0.025 μg/ml”, the Chemiluminescence was 42629 ± 664.10 light units per second and the Inhibition is given as 0%. Where the note is “antibody amount 10 μg/ml”, this molecule displayed a Chemiluminescence of 42847 ± 1429.78 light units per second and an Inhibition of 0%.
